Results as given in ChEMBL document CHEMBL1201862, “PubChem BioAssay data set” (2004).
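Briefly, cells in 96-well plates were exposed to five compound concentrations for 48 h, and endpoints were estimated by linear interpolation. Here, GI50 denotes the concentration required for 50% inhibition of growth.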 Active and inactive are the calls of the source. Rule as the data show it: active = GI50 up to about 1.1 µM and inactive = higher.

Assays:
Experiment in all cases: NCI-60 cell line screen, 48 h
SK-MEL-28 = system: SK-MEL-28
HL-60 = system: HL-60
OVCAR-4 = system: OVCAR-4
UO-31 = system: UO-31
K562 = system: K562
DMS-114 = system: DMS-114
SF-295 = system: SF-295
HOP-92 = system: HOP-92
NCI-H522 = system: NCI-H522
HOP-18 = system: HOP-18
NCI-H226 = system: NCI-H226
OVCAR-8 = system: OVCAR-8
SF-539 = system: SF-539
OVCAR-3 = system: OVCAR-3
HOP-62 = system: HOP-62
KM-20L2 = system: KM-20L2
HCT-116 = system: HCT-116
NCI-H460 = system: NCI-H460
M14 = system: M14
RXF 393 = system: RXF 393
LOX IMVI = system: LOX IMVI
Malme-3M = system: Malme-3M
SNB-78 = system: SNB-78
A549 = system: A549
IGROV-1 = system: IGROV-1
MOLT-4 = system: MOLT-4
M19-MEL = system: M19-MEL
SK-MEL-2 = system: SK-MEL-2
DMS-273 = system: DMS-273
SW-620 = system: SW-620
SNB-75 = system: SNB-75
SNB-19 = system: SNB-19
EKVX = system: EKVX
COLO 205 = system: COLO 205
SF-268 = system: SF-268
NCI-H23 = system: NCI-H23
UACC-257 = system: UACC-257
HCC 2998 = system: HCC 2998
CAKI-1 = system: CAKI-1
SR = system: SR
SN12C = system: SN12C
OVCAR-5 = system: OVCAR-5
HCT-15 = system: HCT-15
TK-10 = system: TK-10
ACHN = system: ACHN
786-0 = system: 786-0
SK-OV-3 = system: SK-OV-3
SK-MEL-5 = system: SK-MEL-5
XF498 = system: XF498
A498 = system: A498
LXFL 529 = system: LXFL 529
RPMI-8226 = system: RPMI-8226
U-251 = system: U-251
HT-29 = system: HT-29
DLD-1 = system: DLD-1
UACC-62 = system: UACC-62
CCRF-CEM = system: CCRF-CEM
KM12 = system: KM12
RXF 631 = system: RXF 631

Measured: GI50

CC(=O)OC1(C#N)CC2OC1C1N=NN(C(=O)OC(C)(C)C)C21 (centres undefined)
inactive: SK-MEL-28 16.9 µM | HL-60 20.6 µM | OVCAR-4 28.4 µM | UO-31 > 100 µM | K562 29.9 µM | DMS-114 13.2 µM | SF-295 > 100 µM | HOP-92 20.7 µM | NCI-H522 > 100 µM | HOP-18 > 100 µM | NCI-H226 3.76 µM | OVCAR-8 30.3 µM | SF-539 9.75 µM | OVCAR-3 43.1 µM | HOP-62 > 100 µM | KM-20L2 > 100 µM | HCT-116 10.9 µM | NCI-H460 > 100 µM | M14 21.7 µM | RXF 393 > 31.6 µM | LOX IMVI 17.2 µM | Malme-3M 34.7 µM | SNB-78 21.1 µM | A549 > 10 µM | IGROV-1 > 31.6 µM | MOLT-4 34 µM | M19-MEL > 100 µM | SK-MEL-2 11.2 µM | DMS-273 36.5 µM | SW-620 14.6 µM | SNB-75 70.1 µM | SNB-19 > 100 µM | EKVX 55.1 µM | COLO 205 > 100 µM | SF-268 61.1 µM | NCI-H23 > 10 µM | UACC-257 20.4 µM | HCC 2998 > 100 µM | CAKI-1 > 31.6 µM | SR 15 µM | SN12C 39.7 µM | OVCAR-5 > 100 µM | TK-10 > 100 µM | ACHN > 100 µM | 786-0 > 100 µM | SK-OV-3 > 100 µM | SK-MEL-5 > 31.6 µM | XF498 89.7 µM | A498 > 100 µM | LXFL 529 32.3 µM | RPMI-8226 30.3 µM | U-251 > 100 µM | HT-29 > 100 µM | DLD-1 14.7 µM | UACC-62 18.8 µM | CCRF-CEM 15.1 µM
13.8 µM: HCT-15

O=C(O)c1cc(-c2ccccc2O)nc2ccccc12
inactive: SK-MEL-28 > 100 µM | OVCAR-4 > 100 µM | UO-31 > 100 µM | K562 > 100 µM | DMS-114 > 100 µM | SF-295 > 100 µM | NCI-H522 > 100 µM | HOP-18 26.2 µM | OVCAR-8 > 100 µM | SF-539 > 100 µM | OVCAR-3 > 100 µM | HOP-62 > 100 µM | KM-20L2 > 100 µM | HCT-116 > 100 µM | NCI-H460 > 100 µM | M14 > 100 µM | Malme-3M > 100 µM | SNB-78 > 100 µM | A549 > 100 µM | IGROV-1 > 100 µM | MOLT-4 > 100 µM | M19-MEL > 100 µM | SK-MEL-2 > 100 µM | KM12 > 100 µM | SW-620 > 100 µM | SNB-75 > 100 µM | SNB-19 > 100 µM | EKVX > 100 µM | COLO 205 > 100 µM | SF-268 > 100 µM | NCI-H23 > 100 µM | UACC-257 > 100 µM | HCC 2998 > 100 µM | CAKI-1 > 100 µM | SN12C > 100 µM | OVCAR-5 > 100 µM | TK-10 > 100 µM | ACHN > 100 µM | 786-0 > 100 µM | SK-OV-3 > 100 µM | SK-MEL-5 > 100 µM | XF498 > 100 µM | A498 > 100 µM | LXFL 529 > 100 µM | RPMI-8226 > 100 µM | U-251 > 100 µM | HT-29 > 100 µM | DLD-1 > 100 µM | UACC-62 > 100 µM | CCRF-CEM > 100 µM
> 100 µM: HCT-15

Cc1ccc(NC(=O)CC(=O)n2nc(-c3ccccc3)c(/N=N/c3ccccc3C(=O)O)c2-c2ccccc2)cc1
inactive: SK-MEL-28 > 100 µM | OVCAR-4 > 100 µM | UO-31 28.8 µM | K562 > 100 µM | SF-295 > 100 µM | HOP-92 > 100 µM | NCI-H522 > 100 µM | NCI-H226 > 100 µM | OVCAR-8 > 100 µM | RXF 631 > 100 µM | SF-539 > 100 µM | OVCAR-3 > 100 µM | HOP-62 > 100 µM | KM-20L2 84.7 µM | HCT-116 > 100 µM | RXF 393 > 100 µM | LOX IMVI > 100 µM | Malme-3M > 100 µM | A549 > 100 µM | IGROV-1 > 100 µM | MOLT-4 4.4 µM | M19-MEL > 100 µM | SK-MEL-2 > 100 µM | DMS-273 > 100 µM | KM12 > 100 µM | SW-620 > 100 µM | SNB-19 > 100 µM | EKVX 1.91 µM | COLO 205 > 100 µM | SF-268 > 100 µM | HCC 2998 66.2 µM | CAKI-1 > 100 µM | SR > 100 µM | SN12C > 100 µM | OVCAR-5 > 100 µM | TK-10 38.6 µM | ACHN 51.5 µM | SK-OV-3 > 100 µM | SK-MEL-5 > 100 µM | LXFL 529 > 100 µM | RPMI-8226 > 100 µM | DLD-1 39.3 µM | UACC-62 > 100 µM
> 100 µM: HCT-15

COC(=O)/C(=C1\OC(=O)C(c2ccc(Cl)cc2)=C1O)c1ccc(Cl)cc1
inactive: SK-MEL-28 31 µM | HL-60 7.6 µM | OVCAR-4 9.71 µM | UO-31 28.7 µM | K562 27 µM | DMS-114 15.8 µM | SF-295 19.2 µM | HOP-92 17.8 µM | NCI-H522 17.2 µM | HOP-18 21 µM | NCI-H226 21.8 µM | OVCAR-8 31.7 µM | SF-539 23.4 µM | OVCAR-3 27.8 µM | HOP-62 17.7 µM | KM-20L2 28.6 µM | HCT-116 19.8 µM | NCI-H460 26.1 µM | M14 31.2 µM | RXF 393 21.5 µM | LOX IMVI 21.3 µM | Malme-3M 16.2 µM | SNB-78 26.4 µM | A549 24.8 µM | IGROV-1 52 µM | MOLT-4 22.5 µM | M19-MEL 22.1 µM | DMS-273 13.2 µM | KM12 23.8 µM | SW-620 35.7 µM | SNB-75 22.8 µM | SNB-19 27.7 µM | EKVX 23.7 µM | COLO 205 18.9 µM | SF-268 22.3 µM | NCI-H23 16 µM | UACC-257 16.5 µM | HCC 2998 28.7 µM | CAKI-1 23 µM | SR 25.8 µM | SN12C 30.5 µM | OVCAR-5 31.5 µM | TK-10 31 µM | ACHN 23.2 µM | 786-0 36.1 µM | SK-OV-3 28.8 µM | XF498 16.9 µM | A498 16.9 µM | LXFL 529 26.6 µM | RPMI-8226 19.6 µM | U-251 24.3 µM | HT-29 30 µM | DLD-1 29.4 µM | UACC-62 17.9 µM | CCRF-CEM 24.2 µM

CC1=CC(C)(C)N=C2SC(c3ccc(Cl)cc3)=NN12
inactive: SK-MEL-28 36.4 µM | HL-60 12.2 µM | OVCAR-4 26.2 µM | UO-31 19.8 µM | K562 21.4 µM | DMS-114 23.5 µM | SF-295 31.2 µM | HOP-92 27.4 µM | NCI-H522 15.6 µM | HOP-18 21 µM | NCI-H226 21.1 µM | SF-539 31.6 µM | OVCAR-3 18.1 µM | HOP-62 54.3 µM | KM-20L2 22.5 µM | NCI-H460 29.2 µM | M14 30.5 µM | LOX IMVI 40.1 µM | Malme-3M 24.9 µM | SNB-78 59.2 µM | A549 40 µM | IGROV-1 > 100 µM | MOLT-4 14.9 µM | M19-MEL 32 µM | SK-MEL-2 43.6 µM | DMS-273 38 µM | KM12 26 µM | SW-620 32.1 µM | SNB-19 50.1 µM | EKVX 3.85 µM | COLO 205 41.1 µM | SF-268 27.5 µM | NCI-H23 15.5 µM | UACC-257 29.4 µM | HCC 2998 25.6 µM | CAKI-1 27.9 µM | OVCAR-5 17.6 µM | TK-10 37 µM | ACHN 27.9 µM | 786-0 15.1 µM | SK-OV-3 46.2 µM | SK-MEL-5 15.5 µM | XF498 14.2 µM | A498 25.8 µM | LXFL 529 32.4 µM | RPMI-8226 12.1 µM | U-251 23 µM | HT-29 12 µM | DLD-1 19.5 µM | UACC-62 59.6 µM | CCRF-CEM 28.2 µM
25.4 µM: HCT-15
